{
  "source": "patent US20230391729A1",
  "about": "“SUCCINATE SALTS OF N-(3-(4-(3-(DIISOBUTYLAMINO)PROPYL)PIPERAZIN-1-YL)PROPYL)-1H-BENZO[D]IMIDAZOL-2-AMINE, PREPARATION THEREOF AND USE OF THE SAME” (ALZPROTECT, priority 2020, published 2023)",
  "key": {"[1]": {"tested_on": "tau, phosphorylated on the sites Thr212 and Ser214 (AT100)", "assay": "Tau phosphorylation (AT100) in cortical neurons after Aβ1-42 injury", "assay_type": "cell-based, rat", "details": "Aβ1-42 injury 72 h; doses above 1 nM", "description": "(§1) Rat cortical neurons cultured with microglia were cultured as described by Callizot et al. in J Neurosci Res. 2013, 91: 706-716 with modifications to include microglial cells. Pregnant female rats (Rats Wistar; Janvier Labs France) of 15 days of gestation were killed, after a deep anesthesia with CO2, by cervical dislocation. Then, fetuses were collected and immediately placed in ice-cold L15 Leibovitz medium with a 2% penicillin (10,000 U/ml) and streptomycin (10 mg/ml) solution (PS) and 1% bovine serum albumin (BSA). Cortexes were treated for 20 min at 37° C. with a trypsin-EDTA solution at a final concentration of 0.05% trypsin and 0.02% EDTA. The dissociation was stopped by addition of Dulbecco's modified Eagle's medium (DMEM) with 4.5 g/liter of glucose, containing DNAse I grade II (final concentration 0.5 mg/ml) and 10% fetal calf serum (FCS). Cells were mechanically dissociated by three forced passages through the tip of a 10-mL pipette. […] Viable cells were counted in a Neubauer cytometer, using the trypan blue exclusion test. […]\n(§2) Cortical neurons were intoxicated with A3 solutions (see below) after 11 days of culture. […] This solution was gently agitated for 3 days at 37° C. in the dark and immediately used after being properly diluted in control medium to the concentrations used ([…] of Aβ1-42 preparation containing […] of Aβ oligomers (AβO) measured by WB). […]"}, "[2]": {"tested_on": "cortical neurons cultured with microglia", "assay": "Neuron survival and neurite network (MAP-2) in cortical neurons after Aβ1-42 injury", "assay_type": "cell-based, rat", "details": "Aβ1-42 injury 72 h, co-administered; 10 nM to 100 nM", "description": "as §1, §2"}, "[3]": {"assay": "Variable humidity XRPD (VH-XRPD)", "assay_type": "physicochemical", "details": "exposure to 90% RH for up to 1 hour and 30 minutes", "description": "VH-XRPD analysis was carried out on a Philips X'Pert Pro Multipurpose diffractometer equipped with a humidity chamber. The samples were scanned between 4 and 35.99° 20 using Cu K radiation (α1 λ=1.54060 Å; α2=1.54443 Å; β=1.39225 Å; α1: α2 ratio=0.5) running in Bragg-Brentano geometry (step size 0.008 °2θ) using 40 kV/40 mA generator settings. Measurements were performed at 50%, 60%, 70%, 80%, 90%. The sample was held at 90% for an hour and 30 minutes. Measurements were taken at 30-minute intervals."}, "[4]": {"tested_on": "PGRN", "assay": "Extracellular progranulin quantification by ELISA after Aβ1-42 injury", "assay_type": "cell-based, rat", "details": "Aβ1-42 injury 72 h; 10 nM", "description": "as §1, with “EDTA.” for “EDTA. The dissociation was stopped by addition of Dulbecco's modified Eagle's medium (DMEM) with 4.5 g/liter of glucose, containing DNAse I grade II (final concentration 0.5 mg/ml) and 10% fetal calf serum (FCS). Cells were mechanically dissociated by three forced passages through the tip of a 10-mL pipette.”\nas §2\nLevels of PGRN in the culture medium were determined by ELISA (Progranulin (rat) ELISA lit, Adipogen, Coger) according to manufacturer's recommendations. […] Optical density (OD) was assessed by spectrophotometry at 450 nm wavelength with a Glomax apparatus (Promega). […]"}, "[5]": {"assay": "Gravimetric vapour sorption (GVS)", "assay_type": "physicochemical", "description": "Approximately 10-20 mg of sample was placed into a mesh vapour sorption balance pan and loaded into an IGASorp Moisture Sorption Analyser balance by Hiden Analytical. The sample was subjected to a ramping profile from 40-90% relative humidity (RH) at 10% increments, maintaining the sample at each step until a stable weight had been achieved (98% step completion, minimum step length 30 minutes, maximum step length 60 minutes) at 25° C. After completion of the sorption cycle, the sample was dried using the same procedure to 0% RH, and finally taken back to the starting point of 40% RH. Two cycles were performed. The weight change during the sorption/desorption cycles were plotted, allowing for the hygroscopic nature of the sample to be determined."}},
  "data": [
    {"substance": "N-(3-(4-(3-(diisobutylamino)propyl)piperazin-1-yl)propyl)-1H-benzo[d]imidazol-2-amine sesqui-succinate salt [sesqui-succinate salt Form 1]", "values": [
      {"measurement": "hyperphosphorylation of Tau (AT100 in MAP-2 neurons)", "setting": "[1]", "result": "significantly reduced"},
      {"measurement": "neurite network (MAP-2 staining)", "setting": "[2]", "result": "significantly longer"},
      {"measurement": "neuron survival: total number of neurons (MAP-2 staining)", "setting": "[2]", "result": "neuroprotective"},
      {"measurement": "VH-XRPD crystalline form", "setting": "[3]", "result": "no change to crystallinity or form"},
      {"measurement": "levels of extracellular PGRN", "setting": "[4]", "result": "significantly increased"},
      {"measurement": "Post-GVS XRPD crystalline form", "setting": "[5]; after exposure to GVS humidity conditions", "result": "remain as the same crystalline form"},
      {"measurement": "GVS weight uptake", "setting": "[5]; at 70% RH, 25° C.", "result": "ca. +0.1 wt. %"},
      {"measurement": "GVS water uptake in equivalents", "setting": "[5]; up to 90% RH", "result": "approximately 7.1 equiv. water"},
      {"measurement": "GVS weight increase", "setting": "[5]; up to 90% RH, 25° C.", "result": "ca. +18.9 wt. %"},
      {"measurement": "hygroscopicity", "setting": "[5]; up to 90% relative humidity", "result": "not hygroscopic"}
    ]}
  ]
}
